Assay results as given in US12540118B2, “Dendrene amide compound, bactericide and use thereof” (Jiangsu Flag Chemical Industry Co., Ltd., priority 2020, dated 2026).

Assays:
[1] = target: T1, succinate dehydrogenase (Sus scrofa, UniProt A5GZW8+D0VWV4+Q007T0); assay: Enzyme activity assay, succinate dehydrogenase (DCIP reduction); type: biochemical, porcine; conditions: read-out: Inhibitors (10 μM, SQR)
T1 construct: isolated from porcine hearts; from tissue; host or cells: porcine heart
Outline: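 Porcine heart succinate dehydrogenase (2 nM) in 100 mM sodium phosphate pH 7.4, 0.3 mM EDTA, 20 mM sodium succinate and 53 μM DCIP at 23° C with stirring. DCIP reduction followed at 600 nm (ε 21 mM^−1 cm^−1); linear slope minus baseline gives initial rate.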

[2] = system: Sphaerotheca fuliginea; assay: Sphaerotheca fuliginea potting method; type: in vivo; conditions: Podosphaera fuliginea; 100 mg/L; read-out: Sphaerotheca fuliginea control rating
Description: The fungicidal activity of the control agents and target compounds are determined. The test and investigation method refers to SOP-SC-1101 sphaerotheca fuliginea potting method in disinfectant rolls written by KANGZHUO and GUBAOGEN in “Standard operation specification for testing biological activity of pesticides”.

[3] = system: Erysiphe graminis; assay: Erysiphe graminis potting method; type: in vivo; conditions: Blumeria graminis; 100 mg/L; read-out: Erysiphe graminis control rating
Description: The fungicidal activity of the control agents and target compounds are determined. The test and investigation method refers to SOP-SC-1116 Erysiphe graminis potting method in disinfectant rolls written by KANGZHUO and GUBAOGEN in “Standard operation specification for testing biological activity of pesticides”.

T1 sequence (Q0QF01 43-664 partner): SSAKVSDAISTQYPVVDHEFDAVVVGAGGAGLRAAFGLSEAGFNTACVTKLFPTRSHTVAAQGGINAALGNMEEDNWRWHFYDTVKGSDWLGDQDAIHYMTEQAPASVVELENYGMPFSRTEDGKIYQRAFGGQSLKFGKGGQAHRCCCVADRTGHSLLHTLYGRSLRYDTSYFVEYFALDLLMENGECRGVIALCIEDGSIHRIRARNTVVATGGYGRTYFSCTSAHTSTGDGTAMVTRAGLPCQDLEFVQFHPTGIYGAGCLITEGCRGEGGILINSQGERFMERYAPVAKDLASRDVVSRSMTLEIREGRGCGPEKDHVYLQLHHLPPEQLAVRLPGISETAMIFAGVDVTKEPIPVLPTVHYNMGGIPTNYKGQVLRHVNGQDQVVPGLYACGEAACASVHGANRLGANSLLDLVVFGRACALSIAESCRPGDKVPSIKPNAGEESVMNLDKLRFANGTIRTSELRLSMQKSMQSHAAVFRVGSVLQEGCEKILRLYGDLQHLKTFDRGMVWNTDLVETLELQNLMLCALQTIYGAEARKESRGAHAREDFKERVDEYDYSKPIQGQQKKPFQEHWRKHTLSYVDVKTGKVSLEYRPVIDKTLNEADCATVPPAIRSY
T1 sequence (Q007T0 29-280): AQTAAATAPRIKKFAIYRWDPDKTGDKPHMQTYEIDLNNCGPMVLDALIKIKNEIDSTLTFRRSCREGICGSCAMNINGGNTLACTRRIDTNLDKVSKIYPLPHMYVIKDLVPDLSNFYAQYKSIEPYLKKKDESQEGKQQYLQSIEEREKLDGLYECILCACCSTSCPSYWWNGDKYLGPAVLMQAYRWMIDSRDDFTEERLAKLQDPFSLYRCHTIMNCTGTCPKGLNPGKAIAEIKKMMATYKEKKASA
T1 sequence (D0VWV4 30-169): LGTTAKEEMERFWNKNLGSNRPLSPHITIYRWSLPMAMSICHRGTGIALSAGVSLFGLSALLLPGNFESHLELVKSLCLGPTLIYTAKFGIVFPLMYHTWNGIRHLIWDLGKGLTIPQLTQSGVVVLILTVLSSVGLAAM
T1 sequence (A5GZW8 57-159 limits assumed): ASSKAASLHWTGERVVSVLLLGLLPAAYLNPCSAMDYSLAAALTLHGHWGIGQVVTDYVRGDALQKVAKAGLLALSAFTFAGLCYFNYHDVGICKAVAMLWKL

SMILES	inhibition at 10 µM [1]	pest or weed control at 100 µg/mL [2]	pest or weed control at 100 µg/mL [3]
CCS(=O)(=O)c1cccc(C(CN(C(=O)c2c(C(F)F)nn(C)c2F)C2CC2)=C(Cl)Cl)c1 [Compound 164]	> 90%	80 to 100%	80 to 100%
Cn1nc(C(F)F)c(C(=O)N(CC(=C(Cl)Cl)c2ccc(C#CC3CC3)cc2Cl)C2CC2)c1F [Compound 165]	> 90%	80 to 100%	80 to 100%
CC(C(=C(Cl)Cl)c1ccccc1Cl)N(C(=O)c1c(C(F)F)nn(C)c1F)C1CC1 (stereo not drawn) [Compound 168]	> 90%	80 to 100%	80 to 100%
CC(C(=C(Cl)Cl)c1cccc(Cl)c1)N(C(=O)c1c(C(F)F)nn(C)c1F)C1CC1 (stereo not drawn) [Compound 169]	> 90%	80 to 100%	80 to 100%
CC(C(=C(Cl)Cl)c1ccc(Cl)cc1Cl)N(C(=O)c1c(C(F)F)nn(C)c1F)C1CC1 (stereo not drawn) [Compound 170]	> 90%	80 to 100%	80 to 100%
CC(C(=C(Cl)Cl)c1cc(Cl)ccc1Cl)N(C(=O)c1c(C(F)F)nn(C)c1F)C1CC1 (stereo not drawn) [Compound 171]	> 90%	80 to 100%	80 to 100%
CC(C(=C(Cl)Cl)c1c(Cl)cccc1Cl)N(C(=O)c1c(C(F)F)nn(C)c1F)C1CC1 (stereo not drawn) [Compound 172]	> 90%	80 to 100%	80 to 100%
CC(C(=C(Cl)Cl)c1ccc(Cl)c(Cl)c1)N(C(=O)c1c(C(F)F)nn(C)c1F)C1CC1 (stereo not drawn) [Compound 173]	> 90%	80 to 100%	80 to 100%
CC(C(=C(Cl)Cl)c1cc(Cl)cc(Cl)c1)N(C(=O)c1c(C(F)F)nn(C)c1F)C1CC1 (stereo not drawn) [Compound 174]	> 90%	80 to 100%	80 to 100%
CC(C(=C(Cl)Cl)c1c(Cl)cc(Cl)cc1Cl)N(C(=O)c1c(C(F)F)nn(C)c1F)C1CC1 (stereo not drawn) [Compound 175]	> 90%	80 to 100%	80 to 100%
CC(C(=C(Cl)Cl)c1ccccc1F)N(C(=O)c1c(C(F)F)nn(C)c1F)C1CC1 (stereo not drawn) [Compound 176]	> 90%	80 to 100%	80 to 100%
CC(C(=C(Cl)Cl)c1cccc(F)c1)N(C(=O)c1c(C(F)F)nn(C)c1F)C1CC1 (stereo not drawn) [Compound 177]	> 90%	80 to 100%	80 to 100%
CC(C(=C(Cl)Cl)c1ccc(F)cc1)N(C(=O)c1c(C(F)F)nn(C)c1F)C1CC1 (stereo not drawn) [Compound 178]	> 90%	80 to 100%	80 to 100%
CC(C(=C(Cl)Cl)c1ccc(F)cc1F)N(C(=O)c1c(C(F)F)nn(C)c1F)C1CC1 (stereo not drawn) [Compound 179]	> 90%	80 to 100%	80 to 100%
CC(C(=C(Cl)Cl)c1cc(F)ccc1F)N(C(=O)c1c(C(F)F)nn(C)c1F)C1CC1 (stereo not drawn) [Compound 180]	> 90%	80 to 100%	80 to 100%
CC(C(=C(Cl)Cl)c1c(F)cccc1F)N(C(=O)c1c(C(F)F)nn(C)c1F)C1CC1 (stereo not drawn) [Compound 181]	> 90%	80 to 100%	80 to 100%
CC(C(=C(Cl)Cl)c1c(F)cc(F)cc1F)N(C(=O)c1c(C(F)F)nn(C)c1F)C1CC1 (stereo not drawn) [Compound 182]	> 90%	80 to 100%	80 to 100%

SMILES	inhibition at 10 µM [1]	pest or weed control at 100 µg/mL [2]	pest or weed control at 100 µg/mL [3]
CC(C(=C(Cl)Cl)c1ccc(F)c(F)c1)N(C(=O)c1c(C(F)F)nn(C)c1F)C1CC1 (stereo not drawn) [Compound 183]	> 90%	80 to 100%	80 to 100%
CC(C(=C(Cl)Cl)c1ccc(Br)cc1)N(C(=O)c1c(C(F)F)nn(C)c1F)C1CC1 (stereo not drawn) [Compound 184]	> 90%	80 to 100%	80 to 100%
CC(C(=C(Cl)Cl)c1ccccc1Br)N(C(=O)c1c(C(F)F)nn(C)c1F)C1CC1 (stereo not drawn) [Compound 185]	> 90%	80 to 100%	80 to 100%
CC(C(=C(Cl)Cl)c1cccc(Br)c1)N(C(=O)c1c(C(F)F)nn(C)c1F)C1CC1 (stereo not drawn) [Compound 186]	> 90%	80 to 100%	80 to 100%
CC(C(=C(Cl)Cl)c1ccc(Br)cc1Br)N(C(=O)c1c(C(F)F)nn(C)c1F)C1CC1 (stereo not drawn) [Compound 187]	> 90%	80 to 100%	80 to 100%
CC(C(=C(Cl)Cl)c1cc(Br)ccc1Br)N(C(=O)c1c(C(F)F)nn(C)c1F)C1CC1 (stereo not drawn) [Compound 188]	> 90%	80 to 100%	80 to 100%
CC(C(=C(Cl)Cl)c1c(Br)cccc1Br)N(C(=O)c1c(C(F)F)nn(C)c1F)C1CC1 (stereo not drawn) [Compound 189]	> 90%	80 to 100%	80 to 100%
CC(C(=C(Cl)Cl)c1c(Br)cc(Br)cc1Br)N(C(=O)c1c(C(F)F)nn(C)c1F)C1CC1 (stereo not drawn) [Compound 190]	> 90%	80 to 100%	80 to 100%
CC(C(=C(Cl)Cl)c1ccc(Br)c(Br)c1)N(C(=O)c1c(C(F)F)nn(C)c1F)C1CC1 (stereo not drawn) [Compound 191]	> 90%	80 to 100%	80 to 100%
Cc1cccc(C(=C(Cl)Cl)C(C)N(C(=O)c2c(C(F)F)nn(C)c2F)C2CC2)c1 (stereo not drawn) [Compound 192]	> 90%	80 to 100%	80 to 100%
Cc1ccc(C(=C(Cl)Cl)C(C)N(C(=O)c2c(C(F)F)nn(C)c2F)C2CC2)c(C)c1 (stereo not drawn) [Compound 193]	> 90%	80 to 100%	80 to 100%
Cc1ccc(C)c(C(=C(Cl)Cl)C(C)N(C(=O)c2c(C(F)F)nn(C)c2F)C2CC2)c1 (stereo not drawn) [Compound 194]	> 90%	80 to 100%	80 to 100%
Cc1cccc(C)c1C(=C(Cl)Cl)C(C)N(C(=O)c1c(C(F)F)nn(C)c1F)C1CC1 (stereo not drawn) [Compound 195]	> 90%	80 to 100%	80 to 100%
Cc1cc(C)c(C(=C(Cl)Cl)C(C)N(C(=O)c2c(C(F)F)nn(C)c2F)C2CC2)c(C)c1 (stereo not drawn) [Compound 196]	> 90%	80 to 100%	80 to 100%
Cc1ccc(C(C)C)cc1C(=C(Cl)Cl)C(C)N(C(=O)c1c(C(F)F)nn(C)c1F)C1CC1 (stereo not drawn) [Compound 197]	> 90%	80 to 100%	80 to 100%
Cc1ccc(C(C)C)c(C(=C(Cl)Cl)C(C)N(C(=O)c2c(C(F)F)nn(C)c2F)C2CC2)c1 (stereo not drawn) [Compound 198]	> 90%	80 to 100%	80 to 100%
Cc1ccc(C(C)(C)C)c(C(=C(Cl)Cl)C(C)N(C(=O)c2c(C(F)F)nn(C)c2F)C2CC2)c1 (stereo not drawn) [Compound 199]	> 90%	80 to 100%	80 to 100%
